Data published in US20110092544A1, “FUNGICIDAL PYRIDINES” (E.I. DU PONT DE nemours and company, priority 2008, published 2011).

Legend:
[1] = test system: Erysiphe graminis f. sp. tritici; experiment: Test A: wheat powdery mildew, preventive spray on wheat seedlings, visual disease rating; format: in vivo; conditions: Blumeria graminis, 192 h; for pest or weed control at 200 ppm: 100 = 100% disease control, 0 = no control; for pest or weed control at 40 ppm: 40 ppm (compound number followed by *)
Outline: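 Acetone/water (50/50) suspension with 250 ppm surfactant sprayed to run-off on wheat seedlings (200 ppm ≈ 500 g/ha); inoculated next day with E. graminis spore dust. Incubated 8 days at 20° C, then visually rated 0–100% disease control versus untreated controls; tests at 200 ppm or 40 ppm.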

[2] = test system: Puccinia recondite f. sp. tritici; experiment: Test B: wheat leaf rust, preventive spray on wheat seedlings, visual disease rating; format: in vivo; conditions: 192 h; for pest or weed control at 200 ppm: 100 = 100% disease control, 0 = no control; for pest or weed control at 40 ppm: 40 ppm (compound number followed by *)
Outline: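 Wheat seedlings were sprayed to run-off with compound suspension, 200 ppm (≈500 g/ha) or 40 ppm where marked, containing surfactant in acetone/water. Inoculation with Puccinia recondita spores followed one day later, then 24 h in saturated humidity at 20° C and 7 days at 20° C. Disease control was rated visually, 0–100% versus controls.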

Septoria tritici = experiment: Test C: wheat leaf blotch, preventive spray on wheat seedlings, visual disease rating; format: in vivo; conditions: Zymoseptoria tritici, 504 h; for pest or weed control at 200 ppm: 100 = 100% disease control, 0 = no control; for pest or weed control at 40 ppm: 40 ppm (compound number followed by *)
Outline: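 Wheat seedlings sprayed to run-off with compound in acetone/water plus 250 ppm surfactant at 200 ppm (≈500 g/ha), or 40 ppm where marked; inoculated with Septoria tritici next day. Held saturated at 20 °C for 48 h, then 19 days at 20 °C; disease control rated visually 0–100 versus controls.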

Septoria nodorum = experiment: Test D: wheat glume blotch, preventive spray on wheat seedlings, visual disease rating; format: in vivo; conditions: Parastagonospora nodorum, 216 h; for pest or weed control at 200 ppm: 100 = 100% disease control, 0 = no control; for pest or weed control at 40 ppm: 40 ppm (compound number followed by *)
Outline: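 Compounds in 3% acetone, then 50/50 acetone–water with 250 ppm Trem 014, sprayed to run-off at 200 ppm (500 g/ha; some at 40 ppm) one day before spore inoculation. Held 48 h saturated at 20 °C, then 7 days at 20 °C; visual rating as % disease control vs untreated (0–100).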

Alternaria solani = experiment: Test E: tomato early blight, preventive spray on tomato seedlings, visual disease rating; format: in vivo; conditions: Alternaria solani, 168 h; for pest or weed control at 200 ppm: 100 = 100% disease control, 0 = no control; for pest or weed control at 40 ppm: 40 ppm (compound number followed by *)
Outline: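 Seedlings sprayed to run-off with compound in acetone/water plus 250 ppm Trem 014 (200 ppm ≈ 500 g/ha), inoculated with spores next day. Held 48 h saturated at 27 °C, then 5 days at 20 °C; visual rating 0–100% disease control relative to controls.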

Botrytis cinerea = experiment: Test F: tomato botrytis, preventive spray on tomato seedlings, visual disease rating; format: in vivo; conditions: Botrytis cinerea, 120 h; for pest or weed control at 200 ppm: 100 = 100% disease control, 0 = no control; for pest or weed control at 40 ppm: 40 ppm (compound number followed by *)
Outline: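 Tomato seedlings sprayed to run-off with compound suspended in acetone/water (50/50) plus 250 ppm Trem 014, at 200 ppm (≈500 g/ha) or 40 ppm where marked. Inoculated next day with B. cinerea spores, 48 h saturated atmosphere at 20 °C, then 3 days at 24 °C. Visual rating, 0–100% disease control relative to controls.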

Rhizoctonia oryzae = experiment: Test G: turf brown patch, preventive spray on creeping bent grass seedlings, visual disease rating; format: in vivo; conditions: Waitea circinata, in Agrostis stolonifera, 120 h, 200 ppm, 100 = 100% disease control, 0 = no control

Compound	melting point [°C]	pest or weed control at 200 ppm [1] [%]	pest or weed control at 200 ppm [2] [%]	pest or weed control at 200 ppm (Septoria tritici) [%]	pest or weed control at 200 ppm (Septoria nodorum) [%]	pest or weed control at 200 ppm (Alternaria solani) [%]	pest or weed control at 200 ppm (Botrytis cinerea) [%]	pest or weed control at 40 ppm [1] [%]	pest or weed control at 40 ppm [2] [%]	pest or weed control at 40 ppm (Septoria tritici) [%]	pest or weed control at 40 ppm (Septoria nodorum) [%]	pest or weed control at 40 ppm (Alternaria solani) [%]	pest or weed control at 40 ppm (Botrytis cinerea) [%]	pest or weed control at 200 ppm (Rhizoctonia oryzae) [%]
COc1cc(OC)cc(-c2c(CCl)cnc(C)c2-c2c(F)cc(F)cc2F)c1 [Compound 110, 5-(chloromethyl)-4-(3,5-dimethoxyphenyl)-2-methyl-3-(2,4,6-trifluorophenyl)pyridine]	110 to 115	100	100	96	87	100	99	–	–	–	–	–	–	–
CCc1cnc(C)c(-c2c(F)cc(F)cc2F)c1-c1cc(OC)cc(OC)c1 [Compound 137, 4-(3,5-dimethoxyphenyl)-5-ethyl-2-methyl-3-(2,4,6-trifluorophenyl)pyridine]	102 to 105	–	–	–	–	–	–	100	100	100	97	99	100	–
COc1cc(OC)c(Cl)c(-c2c(CC#N)cnc(C)c2-c2c(F)cc(F)cc2F)c1 [Compound 133, 4-(2-chloro-3,5-dimethoxyphenyl)-6-methyl-5-(2,4,6-trifluorophenyl)-3-pyridineacetonitrile]	159 to 165	–	–	–	–	–	–	98	100	100	95	99	100	–

More lines, main results first:

melting point [°C]	Compound	pest or weed control at 200 ppm [1] [%]	pest or weed control at 200 ppm [2] [%]	pest or weed control at 200 ppm (Septoria tritici) [%]	pest or weed control at 200 ppm (Septoria nodorum) [%]	pest or weed control at 200 ppm (Alternaria solani) [%]	pest or weed control at 200 ppm (Botrytis cinerea) [%]	pest or weed control at 40 ppm [1] [%]	pest or weed control at 40 ppm [2] [%]	pest or weed control at 40 ppm (Septoria tritici) [%]	pest or weed control at 40 ppm (Septoria nodorum) [%]	pest or weed control at 40 ppm (Alternaria solani) [%]	pest or weed control at 40 ppm (Botrytis cinerea) [%]	pest or weed control at 200 ppm (Rhizoctonia oryzae) [%]
166 to 167	COc1cc(OC)cc(-c2c(C(C)(C)O)cnc(C)c2-c2c(F)cc(F)cc2F)c1 [Compound 44, 4-(3,5-dimethoxyphenyl)-α,α,6-trimethyl-5-(2,4,6-trifluorophenyl)-3-pyridinemethanol]	99	100	100	99	100	99	–	–	–	–	–	–	86
131 to 133	COc1cc(OC)cc(-c2c(CC#N)cnc(C)c2-c2c(F)cc(F)cc2F)c1 [Compound 124, 4-(3,5-dimethoxyphenyl)-6-methyl-5-(2,4,6-trifluorophenyl)-3-pyridineacetonitrile]	–	–	–	–	–	–	100	100	99	100	100	100	–
123 to 127	COc1cc(OC)cc(-c2c(-c3ccccc3F)cnc(C)c2-c2c(F)cc(F)cc2F)c1 [Compound 89, 4-(3,5-dimethoxyphenyl)-5-(2-fluorophenyl)-2-methyl-3-(2,4,6-trifluorophenyl)pyridine]	–	–	–	–	–	–	100	100	97	99	99	100	–
